Measured values: PMC1790958, “Bioassay-Guided Evolution of Glycosylated Macrolide Antibiotics in Escherichia coli” (PLoS Biology, 2007)

Assays:
[1] = target: EryBV (Saccharopolyspora erythraea, UniProt O33939); settings: BL21(DE3)/pHL71/pHL50, 100 mg/l 6dEB, 10 μM IPTG, 20 °C, 72 h; TDP-L-mycarose made in the cell
[2] = target: EryCII/EryCIII (Saccharopolyspora erythraea, UniProt A4F7P3); settings: BL21(DE3)/pHL50, 100 mg/l αMEB, 10 μM IPTG, 20 °C, 72 h; TDP-D-desosamine made in the cell
[3] = target: T1, DesIV (Streptomyces venezuelae, UniProt Q9ZGH3); assay: HPLC, UV […] nm; format: biochemical; settings: 1 mM TDP-D-glucose, 1 mM NAD+, 8 μM DesIV, 100 mM phosphate pH 8.0, 1 mM DTT, 5% glycerol, 25 °C
T1 construct: recombinant from E. coli (pET28/pET21-type vectors)
T1 sequence (Q9ZGH3 1-337): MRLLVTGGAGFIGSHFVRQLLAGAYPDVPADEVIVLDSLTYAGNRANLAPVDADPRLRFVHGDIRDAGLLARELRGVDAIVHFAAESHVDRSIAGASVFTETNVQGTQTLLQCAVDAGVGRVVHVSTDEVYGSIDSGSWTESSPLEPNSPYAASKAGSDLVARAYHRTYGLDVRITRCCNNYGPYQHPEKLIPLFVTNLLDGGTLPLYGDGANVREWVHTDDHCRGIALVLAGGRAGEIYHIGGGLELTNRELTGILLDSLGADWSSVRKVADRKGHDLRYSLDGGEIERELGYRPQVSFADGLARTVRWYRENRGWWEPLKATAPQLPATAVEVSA

SMILES	HPLC, UV 264 nm [3]	also measured
CC[C@H]1OC(=O)[C@H](C)[C@@H](O)[C@H](C)[C@@H](O)[C@@H](C)C[C@@H](C)C(=O)[C@H](C)[C@@H](O)[C@H]1C [6dEB]	–	whole-cell conversion to 6-deoxyerythromycin D (with EryCII/EryCIII), B. subtili [1]: EryBV, which ordinarily transfers the mycarose sugar onto erythronolide B, is also capable of recognizing 6dEB
CC[C@H]1OC(=O)[C@H](C)[C@@H](O[C@H]2C[C@@](C)(O)[C@@H](O)[C@H](C)O2)[C@H](C)[C@@H](O)[C@](C)(O)C[C@@H](C)C(=O)[C@H](C)[C@@H](O)[C@H]1C [L, αMEB]	–	% conversion [2]: ~ 25%
Cc1cn([C@H]2C[C@H](O)[C@@H](COP(=O)(O)OP(=O)(O)O[C@H]3O[C@H](C)C(=O)[C@H](O)[C@H]3O)O2)c(=O)[nH]c1=O [B, TDP-4-keto-6-deoxy-D-glucose]	Conversion of TDP-Glucose to TDP-4-Keto-6-Deoxy-Glucose by DesIV	–
Cc1cn([C@H]2C[C@H](O)[C@@H](COP(=O)(O)OP(=O)(O)O[C@H]3O[C@H](CO)[C@@H](O)[C@H](O)[C@H]3O)O2)c(=O)[nH]c1=O [A, TDP-D-glucose]	Conversion of TDP-Glucose to TDP-4-Keto-6-Deoxy-Glucose by DesIV	–
